Experimental data as given in patent US20080119513A1, “Sulfonamide Derivative Selectively Inhibiting Mmp-13” (priority 2004, published 2008).

Key:
Type in all cases: biochemical
MMP-13 = target: T1, MMP-13 (Homo sapiens, UniProt P45452); assay: Assay for inhibitory activities on MMPs (fluorogenic peptide substrate), MMP-13
T1 construct: catalytic domain (^104Tyr˜^267Gly) was amplified with RT-PCR; His-tag; enterokinase digestion-site
Protocol: In regard to MMP-13, mRNA was prepared from carcinoma cell SW1353 derived from human cartilage stimulate by IL-1 and TNF, and catalytic domain (^[…]) was amplified with RT-PCR. This was cloned in Escherichia coli expression vector […] inserted with His-tag sequence and enterokinase digestion-site, induced and expressed by IPTG (Isopropyl-β-D-thiogalactopyranoside) and expressed in an insoluble fraction. Isolation of MMP-13 from an insoluble fraction was carried out by dissolving in modifier (6 M urea) by a usual method and purification with metal chelate chromatography (Ni […] Sepharose). And then removing modifier (6 M urea) with dialyze and refolding of the enzyme spontaneously gave activated MMP-13. The enzymatic activity on MMPs was analyzed by the method described in “C. Graham Knight, Frances Willenbrock and Gillian Murphy: A novel coumarin-labelled peptide for sensitive continuous assays of the matrix metalloproteinases: FEBS LETT., 296, (1992), 263-266”. The substrate: MOCAc-[…] was purchased from Peptide Institute, Inc., Osaka, Japan. The measurement of the inhibitory activities (IC50) was carried out by the following four methods; (A) Reaction with substrate, enzyme (MMPs) and inhibitor (B) Reaction with substrate and inhibitor, without enzyme (C) Reaction with substrate and enzyme (MMPs), without inhibitor (D) Reaction with substrate only IC50 values were calculated by using the following formula and each fluorescence values of above four methods (A to D). % inhibition={1-(A-B)/(C-D)}×100 IC50 means the concentration required to inhibit 50% of the enzyme activity. The value of inhibitory activity against MMP-2, MMP-8, MMP-9, MMP-12, and MMP-13 measured by above mentioned methods are shown in Table 25 and 26.

MMP-2 = target: T2, MMP-2 (Homo sapiens, UniProt P08253); assay: Assay for inhibitory activities on MMPs (fluorogenic peptide substrate), MMP-2
T2 sequence (P08253 110-660): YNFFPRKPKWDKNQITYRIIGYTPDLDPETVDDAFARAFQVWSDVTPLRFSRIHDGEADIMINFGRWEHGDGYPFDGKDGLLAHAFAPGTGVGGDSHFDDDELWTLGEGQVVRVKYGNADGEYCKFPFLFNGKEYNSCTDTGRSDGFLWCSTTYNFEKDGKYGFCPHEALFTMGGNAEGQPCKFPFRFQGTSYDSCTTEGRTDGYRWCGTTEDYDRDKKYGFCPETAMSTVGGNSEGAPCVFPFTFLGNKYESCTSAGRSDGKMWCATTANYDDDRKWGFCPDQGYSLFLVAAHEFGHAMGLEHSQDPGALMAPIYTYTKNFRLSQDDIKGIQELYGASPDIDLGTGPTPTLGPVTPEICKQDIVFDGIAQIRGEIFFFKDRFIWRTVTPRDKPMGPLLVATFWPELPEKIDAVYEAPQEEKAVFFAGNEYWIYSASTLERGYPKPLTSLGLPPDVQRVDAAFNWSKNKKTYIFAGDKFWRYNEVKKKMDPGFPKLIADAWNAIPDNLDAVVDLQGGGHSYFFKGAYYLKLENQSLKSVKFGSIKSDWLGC
Protocol: MMP-2 was purchased from Calbiochem-Novabiochem International, Inc.
(§1) The enzymatic activity on MMPs was analyzed by the method described in “C. Graham Knight, Frances Willenbrock and Gillian Murphy: A novel coumarin-labelled peptide for sensitive continuous assays of the matrix metalloproteinases: FEBS LETT., 296, (1992), 263-266”. The substrate: MOCAc-Pro-Leu-Gly-Leu-A2Pr(DNP)-Ala-Arg-NH2 was purchased from Peptide Institute, Inc., Osaka, Japan. The measurement of the inhibitory activities (IC50) was carried out by the following four methods;
(§2) (A) Reaction with substrate, enzyme (MMPs) and inhibitor
(§3) (B) Reaction with substrate and inhibitor, without enzyme
(§4) (C) Reaction with substrate and enzyme (MMPs), without inhibitor
(§5) (D) Reaction with substrate only
(§6) IC50 values were calculated by using the following formula and each fluorescence values of above four methods (A to D).
(§7) % inhibition={1-(A−B)/(C−D)}×100
(§8) IC50 means the concentration required to inhibit 50% of the enzyme activity.
(§9) The value of inhibitory activity against MMP-2, MMP-8, MMP-9, MMP-12, and MMP-13 measured by above mentioned methods are shown in Table 25 and 26.

MMP-8 = target: T3, MMP-8 (Homo sapiens, UniProt P22894); assay: Assay for inhibitory activities on MMPs (fluorogenic peptide substrate), MMP-8
T3 construct: In regard to MMP-8, catalytic domain (^99Phe˜^262Gly) was amplified with PCR; His-tag; enterokinase digestion-site
Description: In regard to MMP-8, catalytic domain (^99Phe˜^262Gly) was amplified with PCR using commercial available Human Bone Marrow cDNA. This was cloned in Escherichia coli expression vector pTrc99AHE inserted with His-tag sequence and enterokinase digestion-site, induced and expressed by IPTG (Isopropyl-β-D-thiogalactopyranoside) and expressed in a insoluble fraction (Than F. Ho, M. Walid Qoronfleh, Robert C. Wahl, Trica A. Pulvino, Karen J. Vavra, Joe Falvo, Tracey M. Banks, Patricia G. Brake and Richard B. Ciccarelli: Gene expression, purification and characterization of recombinant human neutrophil collagenase. Gene 146, (1994) 297-301. It was prepared by the method in a slight modification). Isolation of MMP-8 from an insoluble fraction was carried out by dissolving in modifier (6 M urea) by a usual method and purification with metal chelate chromatography. And then removing modifier (6 M urea) with dialysis and refolding of the enzyme spontaneously gave activated MMP-8.
as §1, §2, §3, §4, §5, §6, §7, §8, §9

MMP-9 = MMP-9 (Homo sapiens, UniProt P14780); assay: Assay for inhibitory activities on MMPs (fluorogenic peptide substrate), MMP-9
Description: MMP-9 was isolated and purified by the procedure of Y. Okada et al. (Yasunori Okada, Yukio Gonoji, Katsumi Naka, Katsuro Tomita, Isao Nakanishi, Kazushi Iwata, Kyoko Yamashita, and Taro Hayakawa: Matrix metalloproteinase 9 (92-kDa gelatinase/type IV collagenase) from HT1080 human fibrosarcoma cells. Purification and activation of the precursor and enzymic properties, J. Biol. Chem., 1992, 267, 21712-21719) in combination with other following methods: 1) Yasunori Okada, Tatsuhisa Morodomi, Jan J, Enghild, Ko Suzuki, Atsushi Yasui, Isao Nakanishi, Guy Salvesen and Hideaki Nagase: Matrix metalloproteinase 2 from human rheumatoid synovial fibroblasts. Purification and activation of the precursor and enzymic properties, Eur. J. Biochem., 1990, 194, 721-730; 2) Robin V Ward, Rosalind M Hembry, John J Reynolds and Gillian Murphy: The purification of tissue inhibitor of metalloproteinase-2 from its 72 kDa progelatinase complex. Biochem. J., 1991, 278, 179-187. In detail, human fibrosarcoma ATCC HT1080 cell line was cultured to confluent in Dulbecco's Modified Medium (DMEM) containing 10% fetal-calf serum at 37° C. for 48 hours. Subsequently, the medium of confluent culture was changed to serum-free DMEM medium. To obtain MMP-9, phorbol-12-myristate-13-acetate (TPA) must be added to this serum-free DMEM medium at a concentration of 50 ng/ml. The TPA-treated medium was centrifuged at 3000 rpm for 15 min, and the supernatant was concentrated to 450 ml by a Toyo-Roshi UP-20 apparatus with an ultrafiltration membrane. Then, proMMP-9 in this concentrated solution was purified by using columns of Gelatin-Sepharose and Concanavalin A-Sepharose. The pool containing proMMP-9 was dialyzed, concentrated (Toyo-Roshi UP-20) and applied to columns of Sephacryl S-200 and Green A matrix for the separation from TIMPs. The obtained proMMP-9 fraction was activated by TPCK-Trypsin (Final conc.: 3 μg/501 React Mix.).
as §1, §2, §3, §4, §5, §6, §7, §8, §9

MMP-12 = target: T4, MMP-12 (Homo sapiens, UniProt P39900); assay: Assay for inhibitory activities on MMPs (fluorogenic peptide substrate), MMP-12
T4 construct: In regard to MMP-12, catalytic domain (^100Phe˜^263Gly) was amplified with RT-PCR; His-tag; enterokinase digestion-site
Protocol: In regard to MMP-12, catalytic domain (^100Phe˜^263Gly) was amplified with RT-PCR from Human Placenta Total RNA. This was cloned in Escherichia coli expression vector pTrc99AHE inserted with His-tag sequence and enterokinase digestion-site, induced and expressed by IPTG (Isopropyl-β-D-thiogalactopyranoside) and expressed in an insoluble fraction. Isolation of MMP-12 from an insoluble fraction was carried out by dissolving in modifier (6 M urea) by a usual method and purification with metal chelate chromatography (Ni Chelateing Sepharose). And then removing modifier (6 M urea) with dialysis and refolding of the enzyme spontaneously gave activated MMP-12.
as §1, §2, §3, §4, §5, §6, §7, §8, §9

MMP-9, sequence (P14780 107-707): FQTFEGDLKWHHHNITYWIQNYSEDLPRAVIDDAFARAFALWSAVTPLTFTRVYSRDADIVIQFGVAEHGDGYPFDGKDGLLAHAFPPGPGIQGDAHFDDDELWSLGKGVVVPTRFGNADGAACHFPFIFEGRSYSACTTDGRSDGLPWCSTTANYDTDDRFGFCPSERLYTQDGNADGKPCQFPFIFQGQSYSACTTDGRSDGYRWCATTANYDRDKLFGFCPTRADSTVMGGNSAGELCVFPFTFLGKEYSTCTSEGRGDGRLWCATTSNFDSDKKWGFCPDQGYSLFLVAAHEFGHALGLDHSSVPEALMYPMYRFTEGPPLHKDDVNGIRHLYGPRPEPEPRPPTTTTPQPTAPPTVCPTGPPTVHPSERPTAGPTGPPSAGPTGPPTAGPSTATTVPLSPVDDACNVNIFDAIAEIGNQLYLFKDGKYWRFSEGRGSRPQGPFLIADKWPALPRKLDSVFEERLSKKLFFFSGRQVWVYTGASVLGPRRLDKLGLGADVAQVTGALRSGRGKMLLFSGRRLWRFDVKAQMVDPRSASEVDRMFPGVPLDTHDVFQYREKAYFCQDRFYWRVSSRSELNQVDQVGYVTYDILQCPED
T3 sequence (P22894 99-262): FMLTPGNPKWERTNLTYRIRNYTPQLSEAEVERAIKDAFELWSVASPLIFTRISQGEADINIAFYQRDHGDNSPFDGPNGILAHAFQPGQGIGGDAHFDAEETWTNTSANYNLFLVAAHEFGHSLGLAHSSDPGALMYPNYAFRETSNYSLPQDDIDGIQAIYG
T4 sequence (P39900 100-263): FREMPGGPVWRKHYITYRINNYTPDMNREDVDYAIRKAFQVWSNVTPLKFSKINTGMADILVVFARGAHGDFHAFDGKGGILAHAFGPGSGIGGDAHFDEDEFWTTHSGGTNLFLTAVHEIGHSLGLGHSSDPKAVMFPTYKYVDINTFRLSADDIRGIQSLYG

| Structure (SMILES) | IC50 (MMP-13) [nM] | IC50 (MMP-2) [nM] | IC50 (MMP-8) [nM] | IC50 (MMP-9) [nM] | IC50 (MMP-12) [nM] |
| --- | --- | --- | --- | --- | --- |
| COc1ccc2cc(C#Cc3ccc(-c4ccc(S(=O)(=O)N[C@H](CCC(=O)O)C(=O)O)cc4)cc3)ccc2c1 [III-27] | 2.71 | 58.9 | 33.3 | > 10000 | 36.8 |
| C[C@@H](NS(=O)(=O)c1ccc(-c2ccc(NC(=O)c3ccc4ccccc4c3)cc2)cc1)C(=O)O [VI-37] | 38.1 | 726 | > 10000 | > 10000 | > 10000 |
| CSCC[C@H](NS(=O)(=O)c1ccc(-c2ccc(NC(=O)c3ccc4ccccc4c3)cc2)cc1)C(=O)O [VI-44] | 48.4 | 502 | 252 | > 10000 | 162 |
| COc1ccc2cc(C(=O)Nc3ccc(-c4ccc(S(=O)(=O)N[C@H](Cc5ccccc5)C(=O)O)cc4)cc3)ccc2c1 [VI-45] | 61.3 | > 10000 | > 10000 | > 10000 | > 10000 |
| CC(C)[C@@H](NS(=O)(=O)c1ccc(-c2ccc(NC(=O)c3ccc4ccccc4c3)cc2)cc1)C(=O)O [VI-39] | 81.1 | 664 | 5400 | > 10000 | > 10000 |
| O=C(Nc1ccc(-c2ccc(S(=O)(=O)N[C@H](Cc3ccccc3)C(=O)O)s2)cc1)c1ccc2ccccc2c1 [VI-51] | 22.2 | 292 | > 10000 | > 10000 | > 10000 |
| COc1ccc2cc(C#Cc3ccc(-c4ccc(S(=O)(=O)N[C@H](CSC)C(=O)O)cc4)cc3)ccc2c1 [III-49] | 50.8 | > 10000 | 109 | > 10000 | 118 |
| CC(C)C[C@@H](NS(=O)(=O)c1ccc(-c2ccc(C#Cc3ccc4ccccc4c3)cc2)cc1)C(=O)O [III-6] | 15.1 | 499 | 261 | > 10000 | 363 |
| COc1ccc(C[C@H](NS(=O)(=O)c2ccc(-c3ccc(C#Cc4ccc5cc(OC)ccc5c4)cc3)cc2)C(=O)O)cc1 [III-48] | 100 | > 10000 | > 10000 | > 10000 | > 10000 |
| COc1ccc2cc(C#Cc3ccc(-c4ccc(S(=O)(=O)N[C@@H](C(=O)O)C(C)C)cc4)cc3)ccc2c1 [III-20] | 15 | 167 | 154 | > 10000 | 128 |
| O=C(Nc1ccc(-c2ccc(S(=O)(=O)N[C@H](Cc3ccccc3)C(=O)O)cc2)cc1)c1cccs1 [VI-7] | 33.3 | 156 | 2350 | 4340 | 611 |
| O=C(Nc1ccc(-c2ccc(S(=O)(=O)N[C@H](Cc3ccccc3)C(=O)O)cc2)cc1)c1ccccc1 [VI-2] | 73.6 | 371 | > 10000 | > 10000 | > 10000 |
| COc1ccc2cc(C#Cc3ccc(-c4ccc(S(=O)(=O)N[C@@H](C(=O)O)c5ccc(O)cc5)cc4)cc3)ccc2c1 [III-51] | 128 | > 10000 | 508 | > 10000 | 536 |
| CC(C)C[C@@H](NS(=O)(=O)c1ccc(-c2ccc(NC(=O)c3ccc4ccccc4c3)cc2)cc1)C(=O)O [VI-41] | 178 | > 10000 | > 10000 | > 10000 | > 10000 |
| COc1ccc2cc(C#Cc3ccc(-c4ccc(S(=O)(=O)N[C@H](CC(C)C)C(=O)O)cc4)cc3)ccc2c1 [III-22] | 55.7 | > 10000 | 5710 | > 10000 | 9680 |
| COc1ccc2cc(C#Cc3ccc(-c4ccc(S(=O)(=O)N[C@H](C)C(=O)O)cc4)cc3)ccc2c1 [III-17] | 5.6 | > 10000 | > 10000 | > 10000 | > 10000 |
| O=C(Nc1ccc(-c2ccc(S(=O)(=O)N[C@@H](Cc3ccccc3)C(=O)O)cc2)cc1)c1ccc2ccccc2c1 [VI-36] | 65.1 | > 10000 | > 10000 | > 10000 | 7970 |
| O=C(Nc1ccc(-c2ccc(S(=O)(=O)N[C@H](Cc3ccccc3)C(=O)O)cc2)cc1)c1ccc(F)c(F)c1 [VI-11] | 38.8 | 139 | > 10000 | > 10000 | 9010 |
